A word on the IC50: it is the concentration at which inhibition is half-maximal. As a reminder, the Ki is the dissociation constant of the complex between target and ligand, obtained from inhibition or displacement. Low values mean a stronger hold on the target, high ones a looser hold on the target.

Each structure is given as a SMILES string.

The target in assay [1] is T1, Muscarinic acetylcholine receptor M5 (Homo sapiens, UniProt P08912).
T1 sequence (P08912 whole entry): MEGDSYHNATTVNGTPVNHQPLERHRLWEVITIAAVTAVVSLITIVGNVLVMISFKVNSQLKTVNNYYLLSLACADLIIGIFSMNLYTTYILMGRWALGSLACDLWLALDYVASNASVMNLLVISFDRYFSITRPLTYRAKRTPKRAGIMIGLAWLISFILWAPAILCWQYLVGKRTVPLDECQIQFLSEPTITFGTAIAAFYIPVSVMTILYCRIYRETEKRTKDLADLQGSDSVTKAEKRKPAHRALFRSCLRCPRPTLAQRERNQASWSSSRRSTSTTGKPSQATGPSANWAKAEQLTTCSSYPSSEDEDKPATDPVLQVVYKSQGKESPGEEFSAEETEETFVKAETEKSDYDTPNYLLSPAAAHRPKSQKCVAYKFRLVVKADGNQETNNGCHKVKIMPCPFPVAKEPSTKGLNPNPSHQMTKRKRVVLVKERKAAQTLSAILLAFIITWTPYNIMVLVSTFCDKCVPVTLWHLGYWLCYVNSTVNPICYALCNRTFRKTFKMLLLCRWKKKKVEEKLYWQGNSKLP
As to the kind of experiment: Binding affinity to human muscarinic M5 receptor by radioligand displacement assay. In general terms: Displacement assays read how much labelled ligand stays bound in the presence of the test substance.

Assay [2] can be described thus: Binding affinity to human PACAP receptor by radioligand displacement assay.
The nature of assay [3]: Binding affinity to peripheral BZD receptor (unknown origin) by radioligand displacement assay. Further details: species or system Homo sapiens.

With `C[N+]1(C)CCC(OC(=O)C(c2ccccc2)c2ccccc2)CC1` [4-DAMP], in assay [1], the IC50 was determined as 0.45 nM and affinity was put at a Ki of 0.22 nM.

Regarding `CC[C@H](C)[C@H](NC(=O)CNC(=O)[C@H](CC(=O)O)NC(=O)[C@H](CO)NC(=O)[C@@H](N)Cc1cnc[nH]1)C(=O)N[C@@H](Cc1ccccc1)C(=O)N[C@H](C(=O)N[C@@H](CC(=O)O)C(=O)N[C@@H](CO)C(=O)N[C@@H](Cc1ccc(O)cc1)C(=O)N[C@@H](CO)C(=O)N[C@@H](CCCNC(=N)N)C(=O)N[C@@H](Cc1ccc(O)cc1)C(=O)N[C@@H](CCCNC(=N)N)C(=O)N[C@@H](CCCCN)C(=O)N[C@@H](CCC(N)=O)C(=O)N[C@@H](CCSC)C(=O)N[C@@H](C)C(=O)N[C@H](C(=O)N[C@@H](CCCCN)C(=O)N[C@@H](CCCCN)C(=O)N[C@@H](Cc1ccc(O)cc1)C(=O)N[C@@H](CC(C)C)C(=O)N[C@@H](C)C(=O)N[C@@H](C)C(=O)N[C@H](C(=O)N[C@@H](CC(C)C)C(=O)NCC(=O)N[C@@H](CCCCN)C(=O)N[C@@H](CCCNC(=N)N)C(=O)N[C@@H](Cc1ccc(O)cc1)C(=O)N[C@@H](CCCCN)C(=O)N[C@@H](CCC(N)=O)C(=O)N[C@@H](CCCNC(=N)N)C(=O)N[C@H](C(=O)N[C@@H](CCCCN)C(=O)N[C@@H](CC(N)=O)C(=O)N[C@@H](CCCCN)C(N)=O)C(C)C)C(C)C)C(C)C)[C@@H](C)O`, in assay [2], the IC50 was found to be 0.057 nM and the Ki was 0.049 nM.

Consider `CCC(C)N(C)C(=O)c1cc2ccccc2c(-c2ccccc2Cl)n1` (stereo unspecified) [PK-11195], for which, in assay [3], the IC50 was determined as 0.99 nM and the Ki turned out to be 0.89 nM.

For the origin of these results see ChEMBL document CHEMBL2390830 (Eur J Med Chem, 2013).
